In article PMC9587990, “Molecular basis for isoform-selective inhibition of presenilin-1 by MRK-560” (Nature Communications, 2022):
“And” between values parts separate entries of the source, which are not always exact repeats. Identical values can stand only once. Like-named read-outs stand apart in the source and are kept apart here.

What was measured:
Assay in all cases: in vitro cleavage assay, Aβ40 production by AlphaLISA
Type in all cases: biochemical
[1] = target: T1, PS2 I288L γ-secretase complex (Homo sapiens, UniProt P49810, I288L); conditions: for raw data from α-Lisa reading / Caculated Aβ40 production: replicates
T1 construct: made in house
Protocol: (§1) In total we generated six variants, including single and double residue swapping of Thr281/Leu282 in PS1 with Pro287/Ile288 in PS2, respectively. MRK-560 response to the six PS1/PS2 mutant-containing complexes, each purified to homogeneity, was examined in the in vitro cleavage assay (Fig. 4). All proteins used for the activity assay were sub-cloned, expressed and purified as described. Protein concentration was determined using the Bradford method. […] The cleavage reaction was conducted at 37 °C for 4 h. The cleaved products of these substrates were detected using a monoclonal antibody (1:1000 dilution, CW0299, CWBio) against the C-terminal Myc tag. Aβ40 production was detected using the AlphaLISA assay (PerkinElmer) as described. The IC50 values and the inhibition curves were calculated using Prism 8.0. Statistical analysis of Aβ40 was performed using Prism 8 (GraphPad Software, San Diego, CA, USA). IC50 were determined by a four-parameter logistic regression. The statistical details can be found in Figs. 1, 4 and legends. Data are expressed as mean ± SD.

[2] = target: T2, PS2 P287T γ-secretase complex (Homo sapiens, UniProt P49810, P287T); conditions: for remaining activity at 0.002 µM / remaining activity at 0.04 µM / remaining activity at 0.2 µM / remaining activity at 1 µM / remaining activity at 10 µM / remaining activity at 20 µM: 4 h
T2 construct: made in house
Protocol: as §1

[3] = target: T3, PS2 PI287-288TL γ-secretase complex (Homo sapiens, UniProt P49810, I288L/P287T); conditions: for remaining activity at 0.002 µM / remaining activity at 0.04 µM / remaining activity at 0.2 µM / remaining activity at 1 µM / remaining activity at 10 µM / remaining activity at 20 µM: 4 h
T3 construct: made in house
Protocol: as §1

[4] = PS2 PI 287 288 TL, MRK-560 2 nM, replicates
[5] = PS2 PI 287 288 TL, MRK-560 40 nM, replicates
[6] = PS2 PI 287 288 TL, MRK-560 200 nM, replicates
[7] = PS2 PI 287 288 TL, MRK-560 1 μM, replicates
[8] = PS2 PI 287 288 TL, MRK-560 10 μM, replicates
[9] = PS2 PI 287 288 TL, MRK-560 20 μM, replicates

T1 sequence (P49810 whole entry I288L): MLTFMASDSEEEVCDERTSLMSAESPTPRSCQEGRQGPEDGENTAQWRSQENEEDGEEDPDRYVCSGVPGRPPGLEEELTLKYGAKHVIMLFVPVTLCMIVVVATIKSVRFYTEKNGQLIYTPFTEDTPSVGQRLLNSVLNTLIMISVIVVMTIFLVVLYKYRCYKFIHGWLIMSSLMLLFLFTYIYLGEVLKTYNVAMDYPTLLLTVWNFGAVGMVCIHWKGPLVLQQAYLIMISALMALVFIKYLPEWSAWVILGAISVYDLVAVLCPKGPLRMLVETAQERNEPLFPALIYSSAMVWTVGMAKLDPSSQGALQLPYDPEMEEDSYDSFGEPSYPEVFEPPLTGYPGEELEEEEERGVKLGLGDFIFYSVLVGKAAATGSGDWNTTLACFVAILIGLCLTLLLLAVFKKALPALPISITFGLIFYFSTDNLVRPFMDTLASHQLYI
T1 sequence (Q96BI3 whole entry partner): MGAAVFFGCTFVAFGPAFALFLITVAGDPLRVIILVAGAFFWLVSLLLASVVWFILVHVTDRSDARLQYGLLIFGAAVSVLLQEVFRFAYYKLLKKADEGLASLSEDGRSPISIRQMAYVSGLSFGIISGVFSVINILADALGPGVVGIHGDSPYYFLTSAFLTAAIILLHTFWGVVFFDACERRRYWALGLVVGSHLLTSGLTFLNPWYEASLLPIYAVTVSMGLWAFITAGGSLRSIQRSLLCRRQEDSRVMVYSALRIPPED
T1 sequence (Q9NZ42 whole entry partner): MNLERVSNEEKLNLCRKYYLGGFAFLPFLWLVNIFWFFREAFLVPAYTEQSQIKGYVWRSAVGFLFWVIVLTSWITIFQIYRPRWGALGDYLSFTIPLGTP
T1 sequence (Q92542 34-709 partner): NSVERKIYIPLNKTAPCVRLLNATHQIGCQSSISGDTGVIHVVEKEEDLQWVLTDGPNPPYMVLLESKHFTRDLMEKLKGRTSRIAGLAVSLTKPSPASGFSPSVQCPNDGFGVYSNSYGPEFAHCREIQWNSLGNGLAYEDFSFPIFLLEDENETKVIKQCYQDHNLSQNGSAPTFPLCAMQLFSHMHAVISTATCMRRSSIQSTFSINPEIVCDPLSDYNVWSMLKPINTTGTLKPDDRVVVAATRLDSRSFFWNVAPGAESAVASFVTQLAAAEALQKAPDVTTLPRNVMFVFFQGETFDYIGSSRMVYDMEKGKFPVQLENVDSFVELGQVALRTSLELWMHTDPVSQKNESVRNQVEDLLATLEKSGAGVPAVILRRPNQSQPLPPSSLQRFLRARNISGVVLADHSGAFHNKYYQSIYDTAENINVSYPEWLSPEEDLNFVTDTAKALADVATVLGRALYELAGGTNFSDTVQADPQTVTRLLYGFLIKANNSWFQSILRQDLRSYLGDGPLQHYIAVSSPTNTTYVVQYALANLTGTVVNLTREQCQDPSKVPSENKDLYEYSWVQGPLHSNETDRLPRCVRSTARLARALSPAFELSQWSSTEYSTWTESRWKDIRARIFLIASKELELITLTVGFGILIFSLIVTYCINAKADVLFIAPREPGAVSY
T3 sequence (P49810 whole entry P287T/I288L): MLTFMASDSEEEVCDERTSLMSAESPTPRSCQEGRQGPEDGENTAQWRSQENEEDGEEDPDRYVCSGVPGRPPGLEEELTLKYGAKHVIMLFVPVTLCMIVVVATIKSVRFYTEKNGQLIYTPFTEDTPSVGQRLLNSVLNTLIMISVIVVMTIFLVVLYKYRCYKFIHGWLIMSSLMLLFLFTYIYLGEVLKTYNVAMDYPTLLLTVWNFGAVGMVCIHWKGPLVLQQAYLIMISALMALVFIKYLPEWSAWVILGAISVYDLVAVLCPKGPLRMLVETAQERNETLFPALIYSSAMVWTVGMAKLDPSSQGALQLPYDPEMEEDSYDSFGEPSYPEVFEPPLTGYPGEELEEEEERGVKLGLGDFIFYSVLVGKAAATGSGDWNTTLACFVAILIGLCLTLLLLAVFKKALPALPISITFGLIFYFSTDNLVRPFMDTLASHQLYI
T3 sequence (Q96BI3 whole entry partner): as the sequence (Q96BI3 whole entry partner) above
T3 sequence (Q9NZ42 whole entry partner): as the sequence (Q9NZ42 whole entry partner) above
T3 sequence (Q92542 34-709 partner): as the sequence (Q92542 34-709 partner) above
T2 sequence (P49810 whole entry P287T): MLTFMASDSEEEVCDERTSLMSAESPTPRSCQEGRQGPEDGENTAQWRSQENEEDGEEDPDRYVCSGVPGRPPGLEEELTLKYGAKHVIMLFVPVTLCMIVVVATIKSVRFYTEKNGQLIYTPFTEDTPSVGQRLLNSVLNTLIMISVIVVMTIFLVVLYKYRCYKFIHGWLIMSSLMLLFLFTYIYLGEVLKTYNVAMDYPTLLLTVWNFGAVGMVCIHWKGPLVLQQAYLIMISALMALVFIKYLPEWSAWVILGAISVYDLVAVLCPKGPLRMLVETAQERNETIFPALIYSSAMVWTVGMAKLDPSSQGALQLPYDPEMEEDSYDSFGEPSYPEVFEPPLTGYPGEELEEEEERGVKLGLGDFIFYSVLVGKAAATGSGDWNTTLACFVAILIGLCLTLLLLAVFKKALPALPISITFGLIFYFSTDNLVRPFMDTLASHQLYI
T2 sequence (Q96BI3 whole entry partner): as the sequence (Q96BI3 whole entry partner) above
T2 sequence (Q9NZ42 whole entry partner): as the sequence (Q9NZ42 whole entry partner) above
T2 sequence (Q92542 34-709 partner): as the sequence (Q92542 34-709 partner) above

O=S(=O)(NC1CCC(c2cc(F)ccc2F)(S(=O)(=O)c2ccc(Cl)cc2)CC1)C(F)(F)F (stereo not drawn) [MRK-560, N-[cis-4-[(4-chlorophenyl)sulfonyl]-4-(2,5-difluorophenyl)cyclohexyl]-1,1,1-trifluoromethanesulfonamide]
raw data from α-Lisa reading ([1]; MRK-560 2 nM): 78346 and 78633 and 77677
Caculated Aβ40 production ([1]; MRK-560 40 nM): 330.6964 and 306.7347 and 323.3048
raw data from α-Lisa reading ([1]; MRK-560 40 nM): 51118 and 47725 and 50076
Caculated Aβ40 production ([1]; MRK-560 200 nM): 87.0033 and 86.1156 and 85.5883
raw data from α-Lisa reading ([1]; MRK-560 200 nM): 14434 and 14291 and 14206
Caculated Aβ40 production ([1]; MRK-560 1 μM): 25.2908 and 26.2376 and 25.7761
raw data from α-Lisa reading ([1]; MRK-560 1 μM): 4315 and 4473 and 4396
Caculated Aβ40 production ([1]; MRK-560 10 μM): 6.5772 and 6.8972 and 6.7964
raw data from α-Lisa reading ([1]; MRK-560 10 μM): 1174 and 1228 and 1211
Caculated Aβ40 production ([1]; MRK-560 20 μM): 7.8160 and 7.8990 and 8.9905
raw data from α-Lisa reading ([1]; MRK-560 20 μM): 1383 and 1397 and 1581
IC50 ([1]; mean ± SD): 57 ± 10 nM
remaining activity at 0.002 µM ([2]; MRK-560 2 nM, mean of 3 replicates, read-out: Normalized production (control=1), Mean): 86.9%
remaining activity at 0.002 µM ([2]; MRK-560 2 nM, replicates, read-out: Normalized production (control=1)): 87.8%
remaining activity at 0.04 µM ([2]; MRK-560 40 nM, mean of 3 replicates, read-out: Normalized production (control=1), Mean): 68.9%
remaining activity at 0.04 µM ([2]; MRK-560 40 nM, replicates, read-out: Normalized production (control=1)): 70.8%
remaining activity at 0.2 µM ([2]; MRK-560 200 nM, mean of 3 replicates, read-out: Normalized production (control=1), Mean): 33.9%
remaining activity at 0.2 µM ([2]; MRK-560 200 nM, replicates, read-out: Normalized production (control=1)): 34.2%
remaining activity at 1 µM ([2]; MRK-560 1 μM, mean of 3 replicates, read-out: Normalized production (control=1), Mean): 8.68%
remaining activity at 1 µM ([2]; MRK-560 1 μM, replicates, read-out: Normalized production (control=1)): 8.69%
remaining activity at 10 µM ([2]; MRK-560 10 μM, mean of 3 replicates, read-out: Normalized production (control=1), Mean): 1.62%
remaining activity at 10 µM ([2]; MRK-560 10 μM, replicates, read-out: Normalized production (control=1)): 1.63%
remaining activity at 20 µM ([2]; MRK-560 20 μM, mean of 3 replicates, read-out: Normalized production (control=1), Mean): 1.25%
remaining activity at 20 µM ([2]; MRK-560 20 μM, replicates, read-out: Normalized production (control=1)): 1.14%
Caculated Aβ40 production ([2]; MRK-560 2 nM, replicates): 520.0011 and 533.1358 and 528.5350
raw data from α-Lisa reading ([2]; MRK-560 2 nM, replicates): 78132 and 77549 and 76464
Caculated Aβ40 production ([2]; MRK-560 40 nM, replicates): 419.8422 and 429.7041 and 404.1611
raw data from α-Lisa reading ([2]; MRK-560 40 nM, replicates): 64687 and 61254 and 63367
Caculated Aβ40 production ([2]; MRK-560 200 nM, replicates): 203.3520 and 207.5605 and 206.0857
raw data from α-Lisa reading ([2]; MRK-560 200 nM, replicates): 33202 and 32980 and 32568
Caculated Aβ40 production ([2]; MRK-560 1 μM, replicates): 52.1767 and 52.7609 and 53.0714
raw data from α-Lisa reading ([2]; MRK-560 1 μM, replicates): 8864 and 8915 and 8768
Caculated Aβ40 production ([2]; MRK-560 10 μM, replicates): 9.7739 and 9.8808 and 9.9223
raw data from α-Lisa reading ([2]; MRK-560 10 μM, replicates): 1731 and 1738 and 1713
Caculated Aβ40 production ([2]; MRK-560 20 μM, replicates): 7.8338 and 6.8972 and 8.0769
raw data from α-Lisa reading ([2]; MRK-560 20 μM, replicates): 1228 and 1427 and 1386
IC50 ([2]; mean ± SD): 106 ± 27 nM
remaining activity at 0.002 µM ([3]; PS2 PI 287 288 TL, MRK-560 2 nM, mean of 3 replicates, read-out: Normalized production (control=1), Mean): 88.4%
remaining activity at 0.002 µM ([3]; PS2 PI 287 288 TL, MRK-560 2 nM, replicates, read-out: Normalized production (control=1)): 89.8%
remaining activity at 0.04 µM ([3]; PS2 PI 287 288 TL, MRK-560 40 nM, mean of 3 replicates, read-out: Normalized production (control=1), Mean): 38.7%
remaining activity at 0.04 µM ([3]; PS2 PI 287 288 TL, MRK-560 40 nM, replicates, read-out: Normalized production (control=1)): 36.2%
remaining activity at 0.2 µM ([3]; PS2 PI 287 288 TL, MRK-560 200 nM, mean of 3 replicates, read-out: Normalized production (control=1), Mean): 6.34%
remaining activity at 0.2 µM ([3]; PS2 PI 287 288 TL, MRK-560 200 nM, replicates, read-out: Normalized production (control=1)): 6.66%
remaining activity at 1 µM ([3]; PS2 PI 287 288 TL, MRK-560 1 μM, mean of 3 replicates, read-out: Normalized production (control=1), Mean): 1.64%
remaining activity at 1 µM ([3]; PS2 PI 287 288 TL, MRK-560 1 μM, replicates, read-out: Normalized production (control=1)): 1.65%
remaining activity at 10 µM ([3]; PS2 PI 287 288 TL, MRK-560 10 μM, mean of 3 replicates, read-out: Normalized production (control=1), Mean): 0.86%
remaining activity at 10 µM ([3]; PS2 PI 287 288 TL, MRK-560 10 μM, replicates, read-out: Normalized production (control=1)): 0.88%
remaining activity at 20 µM ([3]; PS2 PI 287 288 TL, MRK-560 20 μM, mean of 3 replicates, read-out: Normalized production (control=1), Mean): 1.37%
remaining activity at 20 µM ([3]; PS2 PI 287 288 TL, MRK-560 20 μM, replicates, read-out: Normalized production (control=1)): 1.35%
Caculated Aβ40 production [3, 4]: 622.5323 and 598.5358 and 618.8332
raw data from α-Lisa reading [3, 4]: 89195 and 86274 and 88747
Caculated Aβ40 production [3, 5]: 251.4190 and 280.0544 and 273.5511
raw data from α-Lisa reading [3, 5]: 39722 and 43895 and 42953
Caculated Aβ40 production [3, 6]: 46.1689 and 42.1835 and 43.6058
raw data from α-Lisa reading [3, 6]: 7779 and 7121 and 7356
Caculated Aβ40 production [3, 7]: 11.4428 and 11.3299 and 11.2705
Normalized production (control=1) [3, 7]: 0.0163
raw data from α-Lisa reading [3, 7]: 1994 and 1975 and 1965
Caculated Aβ40 production [3, 8]: 6.1091 and 5.7952 and 6.0025
raw data from α-Lisa reading [3, 8]: 1095 and 1042 and 1077
Caculated Aβ40 production [3, 9]: 9.3406 and 8.5277 and 10.7299
raw data from α-Lisa reading [3, 9]: 1640 and 1503 and 1874
IC50 ([3]; PS2 PI287-288TL, mean ± SD): 25 ± 4 nM
